Laboratory results published in patent US9018208B2, “Heterocycles as potassium channel modulators” (Icagen Inc., priority 2007, dated 2015).
pEC50: −log10 of the molar value.

system: SH-SY5Y M-currents (KCNQ2, KCNQ3 and KCNQ5); experiment: SH-SY5Y native cell line FLIPR assay (voltage-sensitive dye DiBAC); assay type: cell-based, mouse neuroblastoma, rat glioma hybrid cell line; conditions: FLIPR assay, SH-SY5Y native cell line; Table 1; read-out: SH-SY5Y EC50
How it was run: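 Response is peak DiBAC fluorescence change, normalised to the maximum from a positive control agent, sampled every 30 s over 25 min. Before compound addition, SH-SY5Y cells differentiated with PGE1 plus isomethylbutylxanthine were dye-loaded for 1 h in EBSS with […] DiBAC.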

Row | pEC50 | Compound
1 | 5.52 to 6.30 | CC(C)(C)CC(=O)Nc1nc2ccc(F)cn2c1CC(C)(C)C [Compound 15, N-(6-fluoro-3-neopentylimidazo[1,2-a]pyridin-2-yl)-3,3-dimethylbutanamide]
2 | > 6.30 | O=C(Cc1ccccc1)Nc1nc2ccc(C(F)(F)F)cn2c1CC1CCCCC1 [Compound 37, N-(3-(cyclohexylmethyl)-6-(trifluoromethyl)imidazo[1,2-a]pyridin-2-yl)-2-phenylacetamide]
3 | > 6.30 | CC1(CC(=O)Nc2nc3ccc(C(F)(F)F)cn3c2C2CCCC2)CCCC1 [Compound 56, N-(3-cyclopentyl-6-(trifluoromethyl)imidazo[1,2-a]pyridin-2-yl)-2-(1-methylcyclopentyl)acetamide]
4 | > 6.30 | CC1(CC(=O)Nc2nc3ccc(C(F)(F)F)cn3c2C2CCCCC2)CCCC1 [Compound 47, N-(3-cyclohexyl-6-(trifluoromethyl)imidazo[1,2-a]pyridin-2-yl)-2-(1-methylcyclopentyl)acetamide]
5 | > 6.30 | CC(C)(C)Cc1c(NC(=O)Cc2ccc(F)cc2)nc2ccc(F)cn12 [Compound 17, N-(6-fluoro-3-neopentylimidazo[1,2-a]pyridin-2-yl)-2-(4-fluorophenyl) acetamide]

same assay, conditions: FLIPR assay, SH-SY5Y native cell line; Table 2; read-out: SH-SY5Y EC50

Row | Compound | pEC50
6 | O=C(Cc1ccc(F)cc1)Nc1nc2ccc(F)cn2c1-c1cccc(C(F)(F)F)c1 [Compound 164, N-(6-fluoro-3-(3-(trifluoromethyl)phenyl)imidazo[1,2-a]pyridin-2-yl)-2-(4-fluorophenyl)acetamide] | > 6.30
7 | O=C(Cc1ccc(Cl)cc1)Nc1nc2ccc(F)cn2c1-c1ccc(OC(F)(F)F)cc1 [Compound 238, 2-(4-chlorophenyl)-N-(6-fluoro-3-(4-(trifluoromethoxy)phenyl)imidazo[1,2-a]pyridin-2-yl)acetamide] | > 6.30
8 | CC(C)(C)CC(=O)Nc1nc2ccc(F)cn2c1-c1ccc(C#N)c(F)c1 [Compound 197, N-(3-(4-cyano-3-fluorophenyl)-6-fluoroimidazo[1,2-a]pyridin-2-yl)-3,3-dimethylbutanamide] | 5.52 to 6.30
9 | O=C(Cc1ccc(C(F)(F)F)cc1)Nc1nc2ccc(F)cn2c1-c1ccc(F)cc1 [Compound 135, N-(6-fluoro-3-(4-fluorophenyl)imidazo[1,2-a]pyridin-2-yl)-2-(4-(trifluoromethyl)phenyl)acetamide] | 5.52 to 6.30
10 | CC(CC(=O)Nc1nc2ccc(F)cn2c1-c1ccc(OC(F)(F)F)cc1)C(F)(F)F (centres unmarked) [Compound 195, 4,4,4-trifluoro-N-(6-fluoro-3-(4-(trifluoromethoxy)phenyl)imidazo[1,2-a]pyridin-2-yl)-3-methylbutanamide] | > 6.30
11 | CC(C)(C)CC(=O)Nc1nc2ccc(F)cn2c1-c1ccc(F)cc1F [Compound 116, N-(3-(2,4-difluorophenyl)-6-fluoroimidazo[1,2-a]pyridin-2-yl)-3,3-dimethylbutanamide] | 5.52 to 6.30
12 | CC(C)(C)CC(=O)Nc1nc2ccc(F)cn2c1-c1cccc(C(F)(F)F)c1 [Compound 163, N-(6-fluoro-3-(3-(trifluoromethyl)phenyl)imidazo[1,2-a]pyridin-2-yl)-3,3-dimethylbutanamide] | > 6.30
13 | Cc1ccc(-c2c(NC(=O)CC(C)(C)C)nc3ccc(F)cn23)cc1F [Compound 201, N-(6-fluoro-3-(3-fluoro-4-methylphenyl)imidazo[1,2-a]pyridin-2-yl)-3,3-dimethylbutanamide] | > 6.30
14 | 2-(3,4-dichlorophenyl)-N-(6-fluoro-3-(4-fluorophenyl)imidazo yl)acetamide [Compound 142] | > 6.30
15 | CC(C)(C)CC(=O)Nc1nc2cc(C(F)(F)F)ccn2c1-c1ccccc1 [Compound 100, 3,3-dimethyl-N-(3-phenyl-7-(trifluoromethyl)imidazo[1,2-a]pyridin-2-yl)butanamide] | 5.52 to 6.30
16 | O=C(Cc1ccc(F)cc1)Nc1nc2cc(Cl)c(Cl)cn2c1-c1ccc(OC(F)(F)F)cc1 [Compound 217, N-(6,7-dichloro-3-(4-(trifluoromethoxy)phenyl)imidazo[1,2-a]pyridin-2-yl)-2-(4-fluorophenyl)acetamide] | 5.52 to 6.30
17 | CC(C(=O)Nc1nc2cc(C(F)(F)F)ccn2c1-c1ccc(F)cc1)c1ccccc1 (centres unmarked) [Compound 114, N-(3-(4-fluorophenyl)-7-(trifluoromethyl)imidazo[1,2-a]pyridin-2-yl)-2-phenylpropanamide] | 5.52 to 6.30
18 | O=C(Cc1ccccc1)Nc1nc2ccc(F)cn2c1-c1ccccc1 [Compound 96, N-(6-fluoro-3-phenylimidazo[1,2-a]pyridin-2-yl)-2-phenylacetamide] | 5.52 to 6.30

Results, then the compound that gave them:

Row | pEC50 | Compound
19 | > 6.30 | O=C(Nc1nc2ccc(F)cn2c1-c1ccc(OC(F)(F)F)cc1)C1CCC(F)(F)CC1 [Compound 326, 4,4-difluoro-N-(6-fluoro-3-(4-(trifluoromethoxy)phenyl)imidazo[1,2-a]pyridin-2-yl)cyclohexanecarboxamide]
20 | 5.00 to 5.52 | CC(CC(=O)Nc1nc2ncccn2c1-c1cccc(OC(F)(F)F)c1)C(F)(F)F (centres unmarked) [Compound 325, 4,4,4-trifluoro-3-methyl-N-(3-(3-(trifluoromethoxy)phenyl)imidazo[1,2-a]pyrimidin-2-yl)butanamide]
21 | > 6.30 | O=C(Nc1nc2ccc(F)cn2c1-c1cccc(C(F)(F)F)c1)C1CCCC1 [Compound 289, N-(6-fluoro-3-(3-(trifluoromethyl)phenyl)imidazo[1,2-a]pyridin-2-yl)cyclopentanecarboxamide]
22 | > 6.30 | N#Cc1ccc2nc(NC(=O)Cc3ccc(F)cc3)c(-c3ccc(C(F)(F)F)cc3)n2c1 [Compound 260, N-(6-cyano-3-(4-(trifluoromethyl)phenyl)imidazo[1,2-a]pyridin-2-yl)-2-(4-fluorophenyl)acetamide]
23 | > 6.30 | N-(6-fluoro-3-(3-(trifluoromethyl)phenyl)imidazo yl)cycloheptanecarboxamide [Compound 294]
24 | > 6.30 | COc1ccc2nc(NC(=O)CC(C)(C)C)c(-c3cccc(OC(F)(F)F)c3)n2n1 [Compound 346, N-(6-methoxy-3-(3-(trifluoromethoxy)phenyl)imidazo[1,2-b]pyridazin-2-yl)-3,3-dimethylbutanamide]
25 | 5.52 to 6.30 | COc1ccn2c(-c3ccc(C(F)(F)F)cc3)c(NC(=O)Cc3ccccc3)nc2c1 [Compound 246, N-(7-methoxy-3-(4-(trifluoromethyl)phenyl)imidazo[1,2-a]pyridin-2-yl)-2-phenylacetamide]
26 | > 6.30 | 2-(3-chlorophenyl)-N-(6-fluoro-3-(4-(trifluoromethoxy)phenyl)imidazo yl)acetamide [Compound 239]
27 | > 6.30 | CC(CC(=O)Nc1nc2ccc(F)cn2c1-c1cccc(C(F)(F)F)c1)C(F)(F)F (centres unmarked) [Compound 282, 4,4,4-trifluoro-N-(6-fluoro-3-(3-(trifluoromethyl)phenyl)imidazo[1,2-a]pyridin-2-yl)-3-methylbutanamide]
28 | 5.00 to 5.52 | CC(C)(C)CC(=O)Nc1nc2ncccn2c1-c1cccc(Cl)c1 [Compound 329, N-(3-(3-chlorophenyl)imidazo[1,2-a]pyrimidin-2-yl)-3,3-dimethylbutanamide]
29 | 5.00 to 5.52 | CC(CC(=O)Nc1nc2ncccn2c1-c1cccc(Cl)c1)C(F)(F)F (centres unmarked) [Compound 331, N-(3-(3-chlorophenyl)imidazo[1,2-a]pyrimidin-2-yl)-4,4,4-trifluoro-3-methylbutanamide]
30 | > 6.30 | O=C(Cc1ccc(F)cc1)Nc1nc2ccc(F)cn2c1-c1ccc(OC(F)(F)F)c(F)c1 [Compound 296, N-(6-fluoro-3-(3-fluoro-4-(trifluoromethoxy)phenyl)imidazo[1,2-a]pyridin-2-yl)-2-(4-fluorophenyl)acetamide]
31 | > 6.30 | CC(C)(C)CCC(=O)Nc1nc2ccc(F)cn2c1-c1cccc(OC(F)(F)F)c1 [Compound 279, N-(6-fluoro-3-(3-(trifluoromethoxy)phenyl)imidazo[1,2-a]pyridin-2-yl)-4,4-dimethylpentanamide]
32 | 5.52 to 6.30 | Cc1c(F)ccc(-c2c(NC(=O)CC(C)(C)C)nc3ccc(F)cn23)c1F [Compound 256, N-(3-(2,4-difluoro-3-methylphenyl)-6-fluoroimidazo[1,2-a]pyridin-2-yl)-3,3-dimethylbutanamide]
33 | > 6.30 | CC(C)(C)CCC(=O)Nc1nc2ccc(F)cn2c1-c1cccc(C(F)(F)F)c1 [Compound 283, N-(6-fluoro-3-(3-(trifluoromethyl)phenyl)imidazo[1,2-a]pyridin-2-yl)-4,4-dimethylpentanamide]

same assay, conditions: FLIPR assay, SH-SY5Y native cell line; Table 5; read-out: SH-SY5Y EC50

Row | pEC50 | Compound
34 | 5.52 to 6.30 | C=Cc1c(NC(=O)Cc2ccc(F)cc2)nc2cc(C(F)(F)F)ccn12 [Compound 426, 2-(4-fluorophenyl)-N-(7-(trifluoromethyl)-3-vinylimidazo[1,2-a]pyridin-2-yl)acetamide]

same assay, conditions: SH-SY5Y native cell line, FLIPR assay (Table 3); read-out: SH-SY5Y EC50

Row | pEC50 | Compound
35 | 5.52 to 6.30 | CC(CC(=O)Nc1nc2ccccn2c1-c1cc(C(F)(F)F)ccn1)C(F)(F)F (centres unmarked) [Compound 405, 4,4,4-trifluoro-3-methyl-N-(3-(4-(trifluoromethyl)pyridin-2-yl)imidazo[1,2-a]pyridin-2-yl)butanamide]
36 | 5.00 to 5.52 | Cc1ccc2nc(NC(=O)C3CCC(F)(F)CC3)c(-c3nccs3)n2n1 [Compound 389, 4,4-difluoro-N-(6-methyl-3-(thiazol-2-yl)imidazo[1,2-b]pyridazin-2-yl)cyclohexanecarboxamide]
37 | 5.00 to 5.52 | CC(C)C(C)C(=O)Nc1nc2ccc(F)cn2c1-c1ccc(F)cn1 (centres unmarked) [Compound 368, N-(6-fluoro-3-(5-fluoropyridin-2-yl)imidazo[1,2-a]pyridin-2-yl)-2,3-dimethylbutanamide]
38 | 5.52 to 6.30 | CC(CC(=O)Nc1nc2ccc(F)cn2c1-c1cc(C(F)(F)F)ccn1)C(F)(F)F (centres unmarked) [Compound 401, 4,4,4-trifluoro-N-(6-fluoro-3-(4-(trifluoromethyl)pyridin-2-yl)imidazo[1,2-a]pyridin-2-yl)-3-methylbutanamide]
